Measured values reported in patent US20260365671A1, “HETEROCYCLIC COMPOUND” (Takeda Pharmaceutical Company Limited, priority 2022, published 2026).

Tests used:
NLRP3 inflammasome = molecular target: T1, NLRP3 inflammasome (Homo sapiens, UniProt Q96P20); experiment: IL-1β TR-FRET assay (THP-1 cells differentiated to macrophages with IFN-γ, LPS primed, ATP activated; HTRF); assay type: cell-based; settings: THP-1 macrophages, 50 ng/mL LPS priming, compound 30 min, 20 mM ATP 2 hours
T1 construct: IL-1beta HTRF
Procedure: (§1) The biological activity of Compound (I) with respect to NLRP3 was determined using the following in vitro methods.
IL-1β TR-FRET Assay (Reported as IC50)
Monocytic THP-1 cells (ATCC: TIB-202) were maintained in accordance with the provider's instructions in RPMI media (Life Technologies, Cat #A10491-01); RPMI was supplemented with 10% heat inactivated fetal bovine serum (Corning, Cat #35-010-CV). The cells were differentiated into macrophages by the addition of 25 ng/mL IFN-γ (PeproTech, Cat #AF300-02-100UG) for 24 hours at 37 °C/5% CO2. Media was exchanged with fresh media with no FBS, and the cells were treated with 50 ng/mL LPS (priming step) (LPS-EK: Invivogen, Cat #tlrl-peklps). The cells were plated at 240,000 cells per well in 384-well flat-bottom cell culture plates (FALCON, Cat #353962) and were incubated for 24 hours at 37 °C/5% CO2. Compounds were serially diluted (half log dilutions) with DMSO and were finally diluted with Media with no FBS. The compounds were added to the cells in 384-well plates (added in 1:3) and then the plates were incubated for 30 minutes at 37 °C/5% CO2. The NLRP3 inflammasome was activated with the addition of 20 mM ATP (Sigma Cat #A3377-25G) and the cells were incubated for 2 hours at 37 °C/5% CO2. At the end of the incubation period, 30 μL supernatant was transferred to another 384-well plate and mixed on a plate shaker for 1 minutes. The supernatant was mixed with HTRF Antibody (Human IL1 beta kit, Cisbio, 62HIL1BPEH) in assay plates (Greiner Bio-One, Cat #784075) and the assay plates were incubated in shading box at room temperature for 16-24 hours. HTRF signal was measured by EnVision (Perkinelmer) in accordance with the manufacturer's instructions.
(§2) The IC50 values were calculated from a plot of percentage of inhibition versus the inhibitor concentration by a logistics curve fit according to: Y=[Bottom+(Top−Bottom)]/(1+10^[(Log IC50−X)·Hill Slope], where Y is the % inhibition at the inhibitor concentration, X, “Bottom” is the lowest inhibition value, i.e., 0%, “Top” is the maximum inhibition value, i.e., 100%, and the “Hill Slope” describes the slope of the sigmoidal curve between the “Bottom” and “Top” values. The curve fitting was conducted with XLfit (ver. 5.5.0.5, ID Business Solutions Limited) or internally developed software.
(§3) Table 2 lists in vitro biological assay data (IL-1β and TNF-α) for the compounds shown in the examples. These assays are described in the section entitled Biological Activity, above.

NF-κB pathway = experiment: TNF-α assay (THP-1 cells differentiated to macrophages with IFN-γ, NF-κB pathway activated with LPS; ELISA); assay type: cell-based, Human; settings: compound 30 min, 50 ng/mL LPS 3 hours
Procedure: as §1
TNF-α Assay (Reported as IC50)
Monocytic THP-1 cells (ATCC: TIB-202) were maintained in accordance with the provider's instructions in RPMI media (Life Technologies, Cat #A10491-01); RPMI was supplemented with 10% heat inactivated fetal bovine serum (Hyclone Cat #SH30396.03). The cells were differentiated into macrophages by the addition of 25 ng/mL IFN-γ for 24 hours at 37 °C/5% CO2. Media was exchanged with fresh media with no FBS. The cells were plated at 40,000 cells per well in 384-well flat-bottom cell culture plates (Costar 3764) containing compounds (added in 1:1000) in a 1:3.16 serial dilution series in DMSO and were incubated for 30 minutes at 37 °C/5% CO2. The NF-κB pathway was activated with the addition of 50 ng/mL LPS and the cells were incubated for 3 hours at 37 °C/5% CO2. At the end of the incubation period, supernatant ([…]) was removed, and […] were monitored using an ELISA (Human TNF-α ELISA, R&D systems, Cat #DY210) according to the manufacturer's instructions.
as §2, §3

[1] = Homo sapiens, THP-1, THP-1 macrophages

T1 sequence (Q96P20 whole entry): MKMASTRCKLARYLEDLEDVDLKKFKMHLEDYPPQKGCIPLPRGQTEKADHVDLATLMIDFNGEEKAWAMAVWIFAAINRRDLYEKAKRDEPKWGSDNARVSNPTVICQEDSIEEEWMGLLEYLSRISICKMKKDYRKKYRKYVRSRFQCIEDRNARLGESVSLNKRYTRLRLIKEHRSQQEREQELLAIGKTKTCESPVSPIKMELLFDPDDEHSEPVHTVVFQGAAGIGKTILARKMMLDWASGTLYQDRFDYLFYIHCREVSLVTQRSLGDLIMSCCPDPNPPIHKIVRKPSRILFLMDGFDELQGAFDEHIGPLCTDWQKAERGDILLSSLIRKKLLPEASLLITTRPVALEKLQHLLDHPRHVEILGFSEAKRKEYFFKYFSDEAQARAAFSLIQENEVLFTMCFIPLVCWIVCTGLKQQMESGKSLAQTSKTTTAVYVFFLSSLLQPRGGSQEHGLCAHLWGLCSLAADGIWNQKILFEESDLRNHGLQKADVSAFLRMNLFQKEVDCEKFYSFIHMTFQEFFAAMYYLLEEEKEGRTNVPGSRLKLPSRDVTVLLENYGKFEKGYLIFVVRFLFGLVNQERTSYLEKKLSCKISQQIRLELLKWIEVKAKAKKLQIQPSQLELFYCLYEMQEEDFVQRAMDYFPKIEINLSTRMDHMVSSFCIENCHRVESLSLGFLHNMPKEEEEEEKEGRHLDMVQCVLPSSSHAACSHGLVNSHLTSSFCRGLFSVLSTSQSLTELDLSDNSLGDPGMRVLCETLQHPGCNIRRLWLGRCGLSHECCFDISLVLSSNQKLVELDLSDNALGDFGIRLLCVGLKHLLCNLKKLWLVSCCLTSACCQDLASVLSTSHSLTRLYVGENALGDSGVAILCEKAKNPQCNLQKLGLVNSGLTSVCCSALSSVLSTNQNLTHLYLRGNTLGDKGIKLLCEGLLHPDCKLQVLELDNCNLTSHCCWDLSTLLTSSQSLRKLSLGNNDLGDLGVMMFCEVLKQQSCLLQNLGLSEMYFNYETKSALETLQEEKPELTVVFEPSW

Row | Compound | IC50 (NLRP3 inflammasome) [µM] | IC50 (NF-κB pathway; [1]) [µM] | IC50 (NF-κB pathway; THP-1 macrophages) [µM]
1 | COCCN(c1nc2nn(-c3c(C)cc(C)cc3O)cc2s1)[C@@H]1CCCN(C)C1 [Example 52, 2-(5-{(2-methoxyethyl)[(3R)-1-methylpiperidin-3-yl]amino}-2H-pyrazolo[3,4-d][1,3]thiazol-2-yl)-3,5-dimethylphenol] | 0.2 | > 10 | 
2 | CC(=O)N1C[C@H](Nc2nc3nn(-c4c(C)cc(C)cc4O)cc3s2)[C@@H](F)C1 (racemic) [Example 104, racemic mixture of 1-[(3R,4R)-3-fluoro-4-{[2-(2-hydroxy-4,6-dimethylphenyl)-2H-pyrazolo[3,4-d][1,3]thiazol-5-yl]amino}pyrrolidin-1-yl]ethan-1-one and 1-[(3S,4S)-3-fluoro-4-{[2-(2-hydroxy-4,6-dimethylphenyl)-2H-pyrazolo[3,4-d][1,3]thiazol-5-yl]amino}pyrrolidin-1-yl] ethan-1-one] | 0.44 | > 30 | 
3 | Cc1cc(C)c(-n2cc3sc(N[C@@H]4C[C@@H](F)CN(C5CCOC5)C4)nc3n2)c(O)c1 (single isomer, unassigned) [Example 74, 2-[5-({(3R,5R)-5-fluoro-1-[(S)-oxolan-3-yl]piperidin-3-yl}amino)-2H-pyrazolo[3,4-d][1,3]thiazol-2-yl]-3,5-dimethylphenol or 2-[5-({(3R,5R)-5-fluoro-1-[(R)-oxolan-3-yl]piperidin-3-yl}amino)-2H-pyrazolo[3,4-d][1,3]thiazol-2-yl]-3,5-dimethylphenol (tR2)] | 0.56 |  | > 30
4 | Cc1cc(C)c(-n2cc3sc(NC4CCN(C)CC4)nc3n2)c(O)c1 [Example 81, 3,5-dimethyl-2-{5-[(1-methylpiperidin-4-yl)amino]-2H-pyrazolo[3,4-d][1,3]thiazol-2-yl}phenol] | 3.1 | > 30 | 
5 | Cc1cc(C)c(-n2cc3sc(N[C@H]4COC[C@H]4F)nc3n2)c(O)c1 [Example 144, 2-(5-{[(3R,4R)-4-fluorooxolan-3-yl]amino}-2H-pyrazolo [3,4-d][1,3]thiazol-2-yl)-3,5-dimethylphenol or 2-(5-{[(3S,4S)-4-fluorooxolan-3-yl]amino}-2H-pyrazolo[3,4-d][1,3]thiazol-2-yl)-3,5-dimethylphenol (tR1)] | 0.85 | > 30 | 
6 | Cc1cc(C)c(-n2cc3sc(NC4CCN(CC(F)F)CC4)nc3n2)c(O)c1 [Example 129, 2-(5-{[1-(2,2-difluoroethyl)piperidin-4-yl]amino}-2H-pyrazolo[3,4-d][1,3]thiazol-2-yl)-3,5-dimethylphenol] | 2.3 | > 10 | 
7 | Cc1cc(C)c(-n2cc3sc(NC4CCC(=O)N(C)C4)nc3n2)c(O)c1 (centres unmarked) [Example 115, 5-{[2-(2-hydroxy-4,6-dimethylphenyl)-2H-pyrazolo[3,4-d][1,3]thiazol-5-yl]amino}-1-methylpiperidin-2-one] | 0.49 | > 30 | 
8 | Cc1cc(C)c(-n2cc3sc(N[C@@H]4CCCC[C@H]4O)nc3n2)c(O)c1 [Example 162, 2-(5-{[(1R,2R)-2-hydroxycyclohexyl]amino}-2H-pyrazolo[3,4-d][1,3]thiazol-2-yl)-3,5-dimethyl-phenol] | 0.45 | > 30 | 
9 | CCC(=O)N1C[C@H](Nc2nc3nn(-c4c(C)cc(C)cc4O)cc3s2)[C@@H](F)C1 (racemic) [Example 105, racemic mixture of 1-[(3R,4R)-3-fluoro-4-{[2-(2-hydroxy-4,6-dimethylphenyl)-2H-pyrazolo[3,4-d][1,3]thiazol-5-yl]amino}pyrrolidin-1-yl]propan-1-one and 1-[(3S,4S)-3-fluoro-4-{[2-(2-hydroxy-4,6-dimethylphenyl)-2H-pyrazolo[3,4-d][1,3]thiazol-5-yl]amino}pyrrolidin-1-yl]propan-1-one] | 0.31 | > 30 | 
10 | Cc1cc(C)c(-n2cc3sc(N[C@@H]4CCOC[C@H]4O)nc3n2)c(O)c1 [Example 167, 1,5-anhydro-2,3-dideoxy-3-{[2-(2-hydroxy-4,6-dimethylphenyl)-2H-pyrazolo[3,4-d][1,3]thiazol-5-yl]amino}-D-threo-pentitol] | 0.35 | > 30 | 
11 | Cc1cc(C)c(-n2cc3sc(N[C@@H]4CC[C@H](O)C4)nc3n2)c(O)c1 [Example 46, 2-(5-{[(1R,3S)-3-hydroxycyclopentyl]amino}-2H-pyrazolo[3,4-d][1,3]thiazol-2-yl)-3,5-dimethylphenol or 2-(5-{[(1S,3R)-3-hydroxycyclopentyl]amino}-2H-pyrazolo[3,4-d][1,3]thiazol-2-yl)-3,5-dimethylphenyl (tR1)] | 0.33 | > 10 | 
12 | Cc1cc(C)c(-n2cc3sc(N[C@@H]4CN(C)C[C@H]4F)nc3n2)c(O)c1 [Example 79, 2-(5-{[(3R,4R)-4-fluoro-1-methylpyrrolidin-3-yl]amino}-2H-pyrazolo[3,4-d][1,3]thiazol-2-yl)-3,5-dimethylphenol] | 1.1 | > 30 | 

The remaining lines, values ahead:

Row | IC50 (NLRP3 inflammasome) [µM] | IC50 (NF-κB pathway; [1]) [µM] | IC50 (NF-κB pathway; THP-1 macrophages) [µM] | Compound
13 | 0.031 | > 30 |  | Cc1cc(O)c(-n2cc3sc(N[C@@H]4C[C@@H](F)CN(C)C4)nc3n2)c(C(C)C)c1 [Example 94, 2-(5-{[(3R,5R)-5-fluoro-1-methylpiperidin-3-yl]amino}-2H-pyrazolo[3,4-d][1,3]thiazol-2-yl)-5-methyl-3-(propan-2-yl)phenol]
14 | 0.33 | > 30 |  | Cc1cc(C)c(-n2cc3sc(N[C@@H]4CCOC4)nc3n2)c(O)c1 [Example 157, 3,5-dimethyl-2-(5-{[(3R)-oxolan-3-yl]amino}-2H-pyrazolo[3,4-d][1,3]thiazol-2-yl)phenol]
15 | 2 | > 30 |  | Cc1cc(C)c(-n2cc3sc(NC4(CF)COC4)nc3n2)c(O)c1 [Example 170, 2-(5-{[3-(fluoromethyl)oxetan-3-yl]amino}-2H-pyrazolo[3,4-d][1,3]thiazol-2-yl)-3,5-dimethylphenol]
16 | 1.2 |  | > 10 | Cc1cc(C)c(-n2cc3sc(N[C@@H]4CC[C@H](O)C4)nc3n2)c(O)c1 [Example 47, 2-(5-{[(1R,3S)-3-hydroxycyclopentyl]amino}-2H-pyrazolo[3,4-d][1,3]thiazol-2-yl)-3,5-dimethylphenol or 2-(5-{[(1S,3R)-3-hydroxycyclopentyl]amino}-2H-pyrazolo[3,4-d][1,3]thiazol-2-yl)-3,5-dimethylphenol (tR2)]
17 | 1.5 | > 10 |  | COc1cc(C)c(-n2cc3sc(N[C@@H]4CN(C)C[C@H]4F)nc3n2)c(O)c1 [Example 134, 2-(5-{[(3R,4R)-4-fluoro-1-methylpyrrolidin-3-yl]amino}-2H-pyrazolo[3,4-d][1,3]thiazol-2-yl)-5-methoxy-3-methylphenol]
18 | 0.16 | > 30 |  | CCN1C[C@H](Nc2nc3nn(-c4c(C)cc(C)cc4O)cc3s2)[C@@H](F)C1 (racemic) [Example 21, racemic mixture of 2-(5-{[(3R,4R)-1-ethyl-4-fluoropyrrolidin-3-yl]amino}-2H-pyrazolo[3,4-d][1,3]thiazol-2-yl)-3,5-dimethylphenol and 2-(5-{[(3S,4S)-1-ethyl-4-fluoropyrrolidin-3-yl]amino}-2H-pyrazolo[3,4-d][1,3]thiazol-2-yl)-3,5-dimethylphenol]
19 | 0.22 | > 10 |  | Cc1cc(C)c(-n2cc3sc(NC4CCN(C(=O)CC(F)F)C4)nc3n2)c(O)c1 (centres unmarked) [Example 68, 3,3-difluoro-1-(3-{[2-(2-hydroxy-4,6-dimethylphenyl)-2H-pyrazolo[3,4-d][1,3]thiazol-5-yl]amino}pyrrolidin-1-yl)propan-1-one]
